# pIC50: −log10 of the molar value.
# Target: T1, human recombinant phosphodiesterase IVa (met-248) (Homo sapiens, UniProt P27815)
# T1 construct: human recombinant phosphodiesterase IVa (met-248); made in house; host or cells: baculovirus/Sf-9
# Test: SPA based PDE activity assay
# Type: biochemical
# Conditions: 100 nM cAMP; purified GST fusion protein of human recombinant PDE IVa (met-248), baculovirus/Sf-9
# Method: Compounds which inhibit the hydrolysis of cAMP to AMP by the type-IV cAMP-specific phosphodiesterases were screened in a 96-well plate format as follows:
# In a 96 well-plate at 30° C. was added the test compound (dissolved in 2 μL DMSO), […] of substrate buffer containing [2,8-^3H] adenosine 3′,5′-cyclic phosphate (cAMP, 100 nM to 50 μM), 10 mM MgCl2, 1 mM EDTA, 50 mM Tris, pH 7.5. The reaction was initiated by the addition of […] of human recombinant PDE4 (the amount was controlled so that ˜10% product was formed in 10 min.). The reaction was stopped after 10 min. by the addition of 1 mg of PDE-SPA beads (Amersham Pharmacia Biotech, Inc., Piscataway, N.J.). The product AMP generated was quantified on a Wallac Microbeta® 96-well plate counter (EG&G Wallac Co., Gaithersburg, Md.). The signal in the absence of enzyme was defined as the background. 100% activity was defined as the signal detected in the presence of enzyme and DMSO with the background subtracted. Percentage of inhibition was calculated accordingly. IC50 value was approximated with a non-linear regression fit using the standard 4-parameter/multiple binding sites equation from a ten point titration.
# T1 sequence (P27815 248-886 limits assumed): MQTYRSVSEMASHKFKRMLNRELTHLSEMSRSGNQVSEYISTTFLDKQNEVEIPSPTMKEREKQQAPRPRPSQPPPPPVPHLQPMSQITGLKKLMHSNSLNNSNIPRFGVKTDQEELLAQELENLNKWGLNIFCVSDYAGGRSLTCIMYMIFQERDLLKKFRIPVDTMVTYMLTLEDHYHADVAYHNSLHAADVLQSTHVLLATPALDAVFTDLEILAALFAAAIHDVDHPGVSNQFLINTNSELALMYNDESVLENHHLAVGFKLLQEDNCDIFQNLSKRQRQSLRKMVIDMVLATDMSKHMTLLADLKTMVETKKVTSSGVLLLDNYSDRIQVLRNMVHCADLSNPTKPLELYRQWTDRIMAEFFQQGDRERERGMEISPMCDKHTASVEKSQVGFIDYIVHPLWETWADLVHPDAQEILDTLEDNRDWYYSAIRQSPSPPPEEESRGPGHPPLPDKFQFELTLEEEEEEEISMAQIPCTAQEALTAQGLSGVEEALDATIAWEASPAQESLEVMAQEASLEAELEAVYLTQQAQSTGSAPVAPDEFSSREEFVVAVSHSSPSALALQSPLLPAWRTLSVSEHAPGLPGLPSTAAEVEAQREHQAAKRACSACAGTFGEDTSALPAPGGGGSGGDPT
row,pIC50,Structure (SMILES)
1,9.52,"CC(C)(c1cc(-c2cccc(-c3sc(-c4cccc(Cl)c4)nc3-c3ccc(S(C)(=O)=O)cc3)c2)c2ncccc2c1)S(C)(=O)=O [Example 1, 8-(3-{2-(3-chlorophenyl)-4-[4-(methylsulfonyl)phenyl]-1,3-thiazol-5-yl}phenyl)-6-[1-methyl-1-(methylsulfonyl)ethyl]quinoline]"
2,9.00,CC(C)(c1cc(-c2cccc(-c3sc(-c4cccc(S(C)(=O)=O)c4)nc3-c3ccc(S(C)(=O)=O)cc3)c2)c2ncccc2c1)S(C)(=O)=O [Example 41]
3,9.40,"CC(C)(O)c1nc(-c2cccc(-c3cc(C(C)(C)S(C)(=O)=O)cc4cccnc34)c2)c(-c2ccc(S(C)(=O)=O)cc2)s1 [Example 78, 2-{4-(3-{6-[1-methyl-1-(methylsulfonyl)ethyl]quinolin-8-yl}phenyl)-5-[4-(methylsulfonyl)phenyl]-1,3-thiazol-2-yl}propan-2-ol]"
4,8.37,"CC(C)(O)c1nc(-c2cccc(-c3cc(C(C)(C)S(C)(=O)=O)cc4cccnc34)c2)c(-c2ccc(Cl)cc2)s1 [Example 94, 2-[5-(4-chlorophenyl)-4-(3-{6-[1-methyl-1-(methylsulfonyl)ethyl]quinolin-8-yl}phenyl)-1,3-thiazol-2-yl]propan-2-ol]"
5,8.39,"Cc1noc(-c2cc(-c3cccc(-c4cc(C(C)(C)S(C)(=O)=O)cc5cccnc45)c3)c[n+]([O-])c2)n1 [Example 100, 6-[1-methyl-1-(methylsulfonyl)ethyl]-8-{3-[5-(3-methyl-1,2,4-oxadiazol-5-yl)-1-oxidopyridin-3-yl]phenyl}quinoline]"
6,8.66,"Cn1nnc(-c2cc(-c3cccc(-c4cc(C(C)(C)S(C)(=O)=O)cc5cccnc45)c3)c[n+]([O-])c2)n1 [Example 115, 6-[1-methyl-1-(methylsulfonyl)ethyl]-8-{3-[5-(2-methyl-2H-tetraazol-5-yl)-1-oxidopyridin-3-yl]phenyl}quinoline]"

# The next lines start with the compound.
row,Structure (SMILES),pIC50
1,"CC(C)(O)c1cccc(-c2nc(-c3ccc(S(C)(=O)=O)cc3)c(-c3cccc(-c4cc(C(C)(C)S(C)(=O)=O)cc5cccnc45)c3)s2)c1 [Example 69, 2-(3-{5-(3-{6-[1-methyl-1-(methylsulfonyl)ethyl]quinolin-8-yl}phenyl)-4-[4-(methylsulfonyl)phenyl]-1,3-thiazol-2-yl}phenyl)propan-2-ol]",9.22
2,"CC(O)(c1ccc(Cl)cc1)c1nc(-c2cccc(-c3cc(C(C)(C)S(C)(=O)=O)cc4cccnc34)c2)c(-c2ccc(S(C)(=O)=O)cc2)s1 (centres unmarked) [Example 82, 1-(4-chlorophenyl)-1-{4-(3-{6-[1-methyl-1-(methylsulfonyl)ethyl]quinolin-8-yl}phenyl)-5-[4-(methylsulfonyl)phenyl]-1,3-thiazol-2-yl}ethanol]",8.51
3,"CC(C)(O)c1cccc(-c2nc(-c3ccc(F)c(Cl)c3)c(-c3cccc(-c4cc(C(C)(C)S(C)(=O)=O)cc5cccnc45)c3)s2)c1 [Example 88, 2-{3-[4-(3-chloro-4-fluorophenyl)-5-(3-{6-[1-methyl-1-(methylsulfonyl)ethyl]quinolin-8-yl}phenyl)-1,3-thiazol-2-yl]phenyl}propan-2-ol]",8.80
4,"CC(C)(O)c1ccc(-c2nc(-c3ccc(S(C)(=O)=O)cc3)c(-c3cccc(-c4cc(C(C)(C)S(C)(=O)=O)cc5cccnc45)c3)s2)cc1 [Example 157, 2-(4-{5-(3-{6-[1-methyl-1-(methylsulfonyl)ethyl]quinolin-8-yl}phenyl)-4-[4-(methylsulfonyl)phenyl]-1,3-thiazol-2-yl}phenyl)propan-2-ol]",8.77
5,"CC(C)(O)c1nc(-c2ccc(S(C)(=O)=O)cc2)c(-c2cccc(-c3cc(C(=O)NC4CC4)cc4cccnc34)c2)s1 [Example 167, N-cyclopropyl-8-(3-{2-(1-hydroxy-1-methylethyl)-4-[4-(methylsulfonyl)phenyl]-1,3-thiazol-5-yl}phenyl)quinoline-6-carboxamide]",9.40

# Reference: patent US7482456B2, “8-(3-Biaryl)phenylquinoline phosphodiesterase-4 inhibitors” (Merck Frosst Canada, priority 2003, dated 2009)
